Patent publication US10201523B2, “Use of wilforlide A for overcoming chemotherapy resistance” (WESTERN UNIVERSITY OF HEALTH SCIENCES, priority 2013, dated 2019)
Values joined by “and” are separate entries in the source; they are usually repeats but may differ in a detail not shown here. Equal entries are not always repeated.

System: PC3
Assay: SRB cell viability assay, docetaxel with/without wilforlide A pretreatment
Settings: PC3
[1] = no wilforlide A pre-Tx (control of Table 6), docetaxel 10 nM 72 h
[2] = no wilforlide A pre-Tx (control of Table 6), docetaxel 33.3 nM 72 h
[3] = no wilforlide A pre-Tx (control of Table 6), docetaxel 100 nM 72 h
[4] = no wilforlide A pre-Tx (control of Table 8), docetaxel 0.001 nM 72 h
[5] = no wilforlide A pre-Tx (control of Table 8), docetaxel 0.1 nM 72 h
[6] = no wilforlide A pre-Tx (control of Table 8), docetaxel 0.333 nM 72 h
[7] = no wilforlide A pre-Tx (control of Table 8), docetaxel 1 nM 72 h
[8] = no wilforlide A pre-Tx (control of Table 8), docetaxel 3.33 nM 72 h
[9] = no wilforlide A pre-Tx (control of Table 8), docetaxel 10 nM 72 h
[10] = no wilforlide A pre-Tx (control of Table 8), docetaxel 33.3 nM 72 h
[11] = no wilforlide A pre-Tx (control of Table 8), docetaxel 100 nM 72 h
[12] = wilforlide A 0.6 μg/ml pre-Tx, docetaxel 0.1 nM 72 h
[13] = wilforlide A 0.6 μg/ml pre-Tx, docetaxel 0.333 nM 72 h
[14] = wilforlide A 0.6 μg/ml pre-Tx, docetaxel 1 nM 72 h
[15] = wilforlide A 0.6 μg/ml pre-Tx, docetaxel 3.33 nM 72 h
[16] = wilforlide A 0.6 μg/ml pre-Tx, docetaxel 10 nM 72 h
[17] = wilforlide A 0.6 μg/ml pre-Tx, docetaxel 33.3 nM 72 h
[18] = wilforlide A 0.6 μg/ml pre-Tx, docetaxel 100 nM 72 h
[19] = wilforlide A 2.5 μg/ml pre-Tx, docetaxel 0.001 nM 72 h
[20] = wilforlide A 2.5 μg/ml pre-Tx, docetaxel 0.1 nM 72 h
[21] = wilforlide A 2.5 μg/ml pre-Tx, docetaxel 0.333 nM 72 h
[22] = wilforlide A 2.5 μg/ml pre-Tx, docetaxel 1 nM 72 h
[23] = wilforlide A 2.5 μg/ml pre-Tx, docetaxel 3.33 nM 72 h
[24] = wilforlide A 2.5 μg/ml pre-Tx, docetaxel 10 nM 72 h
[25] = wilforlide A 2.5 μg/ml pre-Tx, docetaxel 33.3 nM 72 h
[26] = wilforlide A 2.5 μg/ml pre-Tx, docetaxel 100 nM 72 h
[27] = wilforlide A […] pre-Tx, docetaxel 0.001 nM 72 h
[28] = wilforlide A […] pre-Tx, docetaxel 0.1 nM 72 h
[29] = wilforlide A […] pre-Tx, docetaxel 0.333 nM 72 h
[30] = wilforlide A […] pre-Tx, docetaxel 1 nM 72 h
[31] = wilforlide A […] pre-Tx, docetaxel 3.33 nM 72 h
[32] = wilforlide A […] pre-Tx, docetaxel 10 nM 72 h
[33] = wilforlide A […] pre-Tx, docetaxel 33.3 nM 72 h
[34] = wilforlide A […] pre-Tx, docetaxel 100 nM 72 h

Experimental: Following the 72 hour wilforlide A treatment, a sulforhodamine B (SRB) assay was used to quantitate living cells. To perform the assay, the wilforlide A media was aspirated from each well, and replaced with a 10% solution of cold trichloroacetic acid (TCA) (Cat #: T6399, purchased from Sigma-Aldrich), and incubated for one hour at 4° C. After the TCA incubation, the TCA solution was aspirated, and the cells were washed five times with tap water. After removing the last wash, the plates were left with lids off at room temperature until the surfaces were dry, which took one to two hours. Then 50 μl of a 0.4% solution of sul-forhodamine B (SRB) sodium salt (Cat #: S9012, purchased from Sigma-Aldrich) was added to each well and the plates were incubated at room temperature for 20 to 30 minutes. Afterwards, the wells were washed five times with a 1% acetic acid solution in 10 mM TRIS base (Cat #: 161-0719, purchased from Bio-Rad Laboratories, Hercules, Calif.). The plates were subsequently left to dry for several hours or overnight. SRB that remained in the dried wells was solubilized by adding 100 μl of SRB solubilization solution (10 mM TRIS base) to each well, and placing the plates either on a gently-moving shaker or letting the plates remain stationary at room temperature until the SRB dissolves, which takes about five to ten minutes. The amount of SRB in each well, which correlated directly to the number of living cells at fixation, was determined spectrophotometrically at an absorbance of 565 nm by a microplate reader.
In these comparisons, the in vitro IC50 of a tested chemotherapeutic drug (D) in cell culture was compared to the drug's IC50 when drug treatment followed pretreatment of the cells with wilforlide A (Purchased from PI & PI Technology Inc. of Guangzhou, China or the National Institutes for Food and Drug Control in Beijing, China).
Triplicate wells were assigned to each experimental condition tested, and a 24 hour recovery period for the cells following the seeding of the wells was allowed. During the recovery period, the cells were incubated at 37° C. and 5% CO2.
At the end of the two hour pre-treatment period, 50 μl aliquots of the desired chemotherapeutic drug RPMI medium were added according to the amounts provided in Table 2.
After adding the various doses of chemotherapeutic drugs, as described above, the cells were incubated for an additional 72 hours under the same temperature and atmospheric conditions used for the pre-treatment step.
The cells were then incubated for 72 hours at 37° C. and 5% CO2. After the 72 hour incubation, sulforhodamine B (SRB) assays were performed as described in Example 1 to quantitate living cells.

For CC(=O)O[C@@]12CO[C@@H]1C[C@H](O)[C@@]1(C)C(=O)[C@H](O)C3=C(C)[C@@H](OC(=O)[C@H](O)[C@@H](NC(=O)OC(C)(C)C)c4ccccc4)C[C@@](O)([C@@H](OC(=O)c4ccccc4)[C@H]21)C3(C)C [docetaxel], the “% viable” value [1] was 22.9%, the “mean A” value [1] was 0.447 and the “A at 565 nm” value (no wilforlide A pre-Tx (control of Table 6), docetaxel 10 nM 72 h, background = 0.044) was 0.464 and 0.427 and 0.450. For the same compound, the “% viable” value [2] was 18.1%, the “mean A” value [2] was 0.354 and the “A at 565 nm” value (no wilforlide A pre-Tx (control of Table 6), docetaxel 33.3 nM 72 h, background = 0.044) was 0.337 and 0.357 and 0.368. The “% viable” value [3] was 18.4%, the “mean A” value [3] was 0.360 and the “A at 565 nm” value (no wilforlide A pre-Tx (control of Table 6), docetaxel 100 nM 72 h, background = 0.044) was 0.349 and 0.366 and 0.365. The “% viable” value [4] was 100.0%, the “mean A” value [4] was 1.990 and the “% viable” value [5] was 101.2%. The “mean A” value [5] was 2.014, the “% viable” value [6] was 95.1% and the “mean A” value [6] was 1.892. The “% viable” value [7] was 71.2%, the “mean A” value [7] was 1.417 and the “% viable” value [8] was 45.8%. For the same compound, the “mean A” value [8] was 0.911, the “% viable” value [9] was 23.0% and the “mean A” value [9] was 0.458. The “% viable” value [10] was 17.8%, the “mean A” value [10] was 0.354 and the “% viable” value [11] was 17.4%. The “mean A” value [11] was 0.346, the “mean A” value (wilforlide A 0.6 μg/ml pre-Tx, docetaxel 0.001 nM 72 h) was 1.807 and the “A at 565 nm” value (wilforlide A 0.6 μg/ml pre-Tx, docetaxel 0.001 nM 72 h, background = 0.043) was 1.812 and 1.840 and 1.769. For the same compound, the “% viable” value [12] was 102.3%, the “mean A” value [12] was 1.848 and the “A at 565 nm” value (wilforlide A 0.6 μg/ml pre-Tx, docetaxel 0.1 nM 72 h, background = 0.043) was 1.855 and 1.874 and 1.816. The “% viable” value [13] was 99.3%, the “mean A” value [13] was 1.794 and the “A at 565 nm” value (wilforlide A 0.6 μg/ml pre-Tx, docetaxel 0.333 nM 72 h, background = 0.043) was 1.759 and 1.804 and 1.820. For the same compound, the “% viable” value [14] was 72.9%, the “mean A” value [14] was 1.317 and the “A at 565 nm” value (wilforlide A 0.6 μg/ml pre-Tx, docetaxel 1 nM 72 h, background = 0.043) was 1.303 and 1.386 and 1.263. The “% viable” value [15] was 44.9%, the “mean A” value [15] was 0.811 and the “A at 565 nm” value (wilforlide A 0.6 μg/ml pre-Tx, docetaxel 3.33 nM 72 h, background = 0.043) was 0.843 and 0.814 and 0.777. The “% viable” value [16] was 22.7%, the “mean A” value [16] was 0.409 and the “A at 565 nm” value (wilforlide A 0.6 μg/ml pre-Tx, docetaxel 10 nM 72 h, background = 0.043) was 0.408 and 0.421 and 0.400. For the same compound, the “% viable” value [17] was 17.5%, the “mean A” value [17] was 0.316 and the “A at 565 nm” value (wilforlide A 0.6 μg/ml pre-Tx, docetaxel 33.3 nM 72 h, background = 0.043) was 0.302 and 0.323. The “% viable” value [18] was 16.5%, the “mean A” value [18] was 0.299 and the “A at 565 nm” value (wilforlide A 0.6 μg/ml pre-Tx, docetaxel 100 nM 72 h, background = 0.043) was 0.290 and 0.287 and 0.320. The “% viable” value [19] was 100.0%, the “mean A” value [19] was 1.752 and the “% viable” value [20] was 101.9%. The “mean A” value [20] was 1.786, the “% viable” value [21] was 94.1% and the “mean A” value [21] was 1.648. For the same compound, the “A at 565 nm” value (wilforlide A 2.5 μg/ml pre-Tx, docetaxel 0.333 nM 72 h, background = 0.044) was 1.672, the “% viable” value [22] was 69.8% and the “mean A” value [22] was 1.222. The “A at 565 nm” value (wilforlide A 2.5 μg/ml pre-Tx, docetaxel 1 nM 72 h, background = 0.044) was 1.201, the “% viable” value [23] was 43.9% and the “mean A” value [23] was 0.769. For the same compound, the “A at 565 nm” value (wilforlide A 2.5 μg/ml pre-Tx, docetaxel 3.33 nM 72 h, background = 0.044) was 0.810, the “% viable” value [24] was 23.0% and the “mean A” value [24] was 0.403. For the same compound, the “A at 565 nm” value (wilforlide A 2.5 μg/ml pre-Tx, docetaxel 10 nM 72 h, background = 0.044) was 0.402, the “% viable” value [25] was 19.2% and the “mean A” value [25] was 0.336. For the same compound, the “A at 565 nm” value (wilforlide A 2.5 μg/ml pre-Tx, docetaxel 33.3 nM 72 h, background = 0.044) was 0.358, the “% viable” value [26] was 18.4% and the “mean A” value [26] was 0.322. The “A at 565 nm” value (wilforlide A 2.5 μg/ml pre-Tx, docetaxel 100 nM 72 h, background = 0.044) was 0.318, the “% viable” value [27] was 100.0% and the “mean A” value [27] was 1.957. For the same compound, the “% viable” value [28] was 100.4%, the “mean A” value [28] was 1.965 and the “% viable” value [29] was 92.2%. The “mean A” value [29] was 1.804, the “% viable” value [30] was 67.0% and the “mean A” value [30] was 1.311. The “% viable” value [31] was 41.7%, the “mean A” value [31] was 0.816 and the “% viable” value [32] was 23.9%. For the same compound, the “mean A” value [32] was 0.467, the “% viable” value [33] was 19.1% and the “mean A” value [33] was 0.373. For the same compound, the “% viable” value [34] was 18.4%, the “mean A” value [34] was 0.361 and the IC50 (read-out: Drug IC50 after wilforlide A pre-Tx, pre-Tx amount of wilforlide A printed as none added) was 1.61 nM.
